Source: article PMC3590450, “Analysis of substrate specificity and cyclin Y binding of PCTAIRE-1 kinase” (Cellular Signalling, 2012)
Several values for one entry are separate records, joined by “and”; a condition that tells them apart may be missing. Identical values can stand only once. Each block holds one molecule with its values, some of them ahead of it.

Key:
GST–PCTAIRE-1 [1] = target: T1, GST–PCTAIRE-1 (Homo sapiens, UniProt Q00536); test: In vitro phosphotransferase (kinase) assay of purified GST–PCTAIRE-1 on peptide substrates; type: biochemical; settings: 1 μg GST–PCTAIRE-1, peptide 0-100 μM, mean ± SEM
T1 construct: made in house; host or cells: HEK293 cells, transient transfection with pEBG6P
Procedure: (§1) HEK293 cells were transfected with pEBG6P encoding GST-tagged human PCTAIRE-1 and harvested 36 h later as described above. GST–PCTAIRE-1 was isolated by batch-wise purification using Glutathione-Sepharose 4B. Briefly, lysates were incubated with equilibrated resin for 1 h at 4 °C, washed extensively with lysis buffer and eluted with 20 mM reduced glutathione in 50 mM Tris–HCl pH 8, 0.27 M sucrose, 0.1 mM EGTA and 1 mM DTT. Protein concentration was estimated by densitometry of Coomassie-stained gels using BSA standards. PCTAIRE-1 preparations were snap-frozen in N2(l) and stored at − 80 °C.
(§2) Fig. 1 Determination of PCTAIRE-1 optimal substrate motif. […] (B) GST–PCTAIRE-1 WT/KD was prepared as described in (A) and the optimal substrate motif determined by positional scanning peptide library screening (PSPL) as described in Materials and methods. (C) The activity of GST–PCTAIRE-1 (1 μg) and CDK2–cyclin A2 (10 ng) was assayed against a panel of CDK-tide derivatives (concentration fixed at 250 μM) based on the results of the degenerate library screen (modifications are underlined). Results are expressed as mean ± SEM and are representative of 3 independent experiments.
(§3) Purified rPCTAIRE-1, rCDK2–cyclin A2 or immune complexes isolated from cell/tissue lysates were assayed for phosphotransferase activity in a final assay volume of 50 μl containing 50 mM HEPES pH 7.5, 0.1 mM EGTA, 10 mM Mg(OAc)2, 0.1 mM [γ-^32P] ATP (300 CPM pmol^− 1), 1 mM DTT and the indicated concentrations of peptide substrate. Reactions were incubated at 30 °C and terminated by spotting onto P81 paper and immersion in 75 mM H3PO4. P81 filters were washed 3 × 10 min with H3PO4, rinsed with acetone, air-dried and incorporation of [γ-^32P] determined by Cherenkov counting. Results are expressed in U mg^− 1, where 1 U is defined as the incorporation of 1 nmol phosphate.min^− 1.
(§4) Fig. 2 Optimisation of PCTAIRE-1 substrate peptide. The in vitro phosphotransferase activity of 1 μg GST–PCTAIRE-1 (A) and 10 ng CDK2–cyclin A2 (B) was determined using a panel of CDK-tide derivatives (modifications from the parental peptide are underlined). Peptide conc. was varied over the range 0 > 100 μM and substrate saturation curves were fitted by non-linear regression to the Michaelis–Menten model. Fitted parameters [Km (μM) and Vmax (mU mg^− 1)] are listed in the adjoining table. (C) Based on the CDK-tide optimisation, derivatives of NSF-tide were synthesised (modifications underlined) and assayed for PCTAIRE-1 activity as described in (A + B). 100% GST–PCTAIRE-1 = 164 mU mg^− 1 and 100% CDK2–[…] = 940 U mg^− 1. (D) PCTAIRE-1 was immunoprecipitated from 2 mg of HEK293 lysate and kinase activity determined using 250 μM CDK-tide or the optimised substrate, PKS*PKARKKL (PCTAIRE-tide) as described in Materials and methods. Results are expressed as mean ± SEM and are representative of 3 independent experiments. […]

CDK2–cyclin A2 = target: T2, CDK2–cyclin A2 (Homo sapiens, UniProt P20248+P24941); test: In vitro phosphotransferase (kinase) assay of rCDK2–cyclin A2 on peptide substrates; type: biochemical; settings: for CDK2-cyclin A2 Vmax: Fig. 2B table
T2 construct: made in house; host or cells: Escherichia coli
Procedure: PCTAIRE-1C-16 (sc-174) and PCTAIRE-1G6.1 (sc-53410) antibodies were from Santa Cruz Biotechnology. Cyclin Y antibody was from Proteintech. HA.11 (16B2) antibody was from Covance Research Products. The following antibodies were raised in sheep by the Division of Signal Transduction Therapy (DSTT, University of Dundee) against the indicated immunogens: PCTAIRE-1 (S552C, full length human 6×his-PCTAIRE-1), cyclin Y (S206D, full length human GST-cyclin Y). rCDK2–cyclin A2 was prepared by overexpression in Escherichia coli as previously described. Peptide substrates for kinase assays were synthesised by GL Biochem, and the peptide library was synthesised by Anaspec, Inc. [γ-^32P] ATP was from PerkinElmer. HRP-conjugated secondary antibodies were from Jackson Immunoresearch. Unless otherwise indicated all other reagents were from Sigma.
as §2, §3, §4

GST–PCTAIRE-1 [2] = test: In vitro phosphotransferase (kinase) assay of purified GST–PCTAIRE-1 on peptide substrates; type: biochemical, human; settings: GST–PCTAIRE-1 from HEK293 vs CDK2–cyclin A2 from E. coli; data not shown
Procedure: as §1, §2, §3, §4

FLAG-WT–PCTAIRE-1 = FLAG-WT–PCTAIRE-1 (human, UniProt Q00536-1 1-496); test: cell-based or functional assay
[3] = Fig. 2A, CDK-tide derivatives, Michaelis–Menten fit, 0.1 mM [γ-32P]ATP, 30 °C, 1 U = 1 nmol phosphate min-1
[4] = Fig. 2A, CDK-tide derivatives, Michaelis–Menten non-linear regression, 0.1 mM [γ-32P]ATP, 30 °C, P81 paper, representative of 3 independent experiments
[5] = CDK-tide derivatives, 10 ng CDK2–cyclin A2, peptide 0-100 μM, Michaelis–Menten fit, mean ± SEM
[6] = Fig. 2B, CDK-tide derivatives, 10 ng CDK2–cyclin A2, peptide 0-100 μM, Michaelis–Menten fit, 0.1 mM [γ-32P]ATP, 30 °C, mean ± SEM, representative of 3 independent experiments

T1 sequence (Q00536 whole entry): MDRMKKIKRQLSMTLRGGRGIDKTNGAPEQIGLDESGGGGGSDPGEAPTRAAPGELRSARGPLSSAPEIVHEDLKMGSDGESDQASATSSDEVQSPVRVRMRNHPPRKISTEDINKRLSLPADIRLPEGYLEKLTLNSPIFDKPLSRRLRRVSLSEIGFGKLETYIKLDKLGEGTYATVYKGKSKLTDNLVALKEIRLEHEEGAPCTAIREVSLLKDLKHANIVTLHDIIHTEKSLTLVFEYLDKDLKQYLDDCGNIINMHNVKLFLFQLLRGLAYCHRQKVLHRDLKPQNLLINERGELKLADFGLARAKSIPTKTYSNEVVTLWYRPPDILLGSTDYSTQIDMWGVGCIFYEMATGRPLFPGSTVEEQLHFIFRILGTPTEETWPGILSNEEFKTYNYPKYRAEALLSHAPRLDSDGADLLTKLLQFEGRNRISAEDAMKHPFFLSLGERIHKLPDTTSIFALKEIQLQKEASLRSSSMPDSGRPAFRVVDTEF
Chain of FLAG-WT–PCTAIRE-1 (Q00536 whole entry): as above

Km (GST–PCTAIRE-1 [1]; Fig. 2C, NSF-tide derivatives, Michaelis–Menten fit, 0.1 mM [γ-32P]ATP, 30 °C): 15 ± 6 µM | GST-PCTAIRE-1 Vmax (GST–PCTAIRE-1 [1]; Fig. 2C, NSF-tide derivatives, Michaelis–Menten fit): 34 ± 4 mU.mg^-1
Molecule: FIKICSPDKMIGRRR [peptide around Ser569 of human NSF with three extra C-terminal Arg]

GST-PCTAIRE-1 Vmax (GST–PCTAIRE-1 [1]; [3]): 550 ± 19 mU.mg^-1 | GST-PCTAIRE-1 Vmax (GST–PCTAIRE-1 [1]; Fig. 2A, CDK-tide derivatives, Michaelis–Menten fit, 0.1 mM [γ-32P]ATP, 30 °C, 1 U = 1 nmol phosphate min-1, listed as PKSPKARKKL): ~ 550 mU.mg^-1 | Km (GST–PCTAIRE-1 [1]; [4]): 4 ± 1 µM | Km (GST–PCTAIRE-1 [1]; Fig. 2A, CDK-tide derivatives, Michaelis–Menten non-linear regression, 0.1 mM [γ-32P]ATP, 30 °C, P81 paper, representative of 3 independent experiments, listed as PKSPKARKKL): ~4 µM | CDK2-cyclin A2 Vmax (CDK2–cyclin A2; [5]): No fit | CDK2-cyclin A2 Km (CDK2–cyclin A2; [6]): No fit
Molecule: PKSPKARKKL [optimal PCTAIRE-1 substrate peptide …, modified from the parental CDK substrate peptide]

GST-PCTAIRE-1 Vmax (GST–PCTAIRE-1 [1]; [3]): 71 ± 7 mU.mg^-1 | Km (GST–PCTAIRE-1 [1]; [4]): 23 ± 6 µM | Specific activity of PCTAIRE-1 towards the peptide, fold lower than that of CDK2–cyclin A2 (GST–PCTAIRE-1 [2]): > 2000 fold | CDK2-cyclin A2 Vmax (CDK2–cyclin A2; [5]): 1100 ± 54 U.mg^-1 | Km (CDK2–cyclin A2; [6]): ~20 µM and 19 µM | CDK2–cyclin A2 Vmax as stated in text (CDK2–cyclin A2; running text on Fig. 2B, one range stated for TPKKR, SPKKA and TPKKA together): 1100–1500 mU mg^− 1
Molecule: PKTPKKAKKL [generic CDK substrate peptide … derived from CDK phosphorylation sites of histone H1]

PCTAIRE-1 kinase activity of the immunoprecipitates towards 50 μM PCTAIRE-tide, with co-expressed cyclin Y against without (FLAG-WT–PCTAIRE-1): > 100 fold
B1: HA-cyclin Y (natural protein, human, UniProt Q8ND76-1 1-341, looked up)
chain: MGNTTSCCVSSSPKLRRNAHSRLESYRPDTDLSREDTGCNLQHISDRENIDDLNMEFNPSDHPRASTIFLSKSQTDVREKRKSLFINHHPPGQIARKYSSCSTIFLDDSTVSQPNLKYTIKCVALAIYYHIKNRDPDGRMLLDIFDENLHPLSKSEVPPDYDKHNPEQKQIYRFVRTLFSAAQLTAECAIVTLVYLERLLTYAEIDICPANWKRIVLGAILLASKVWDDQAVWNVDYCQILKDITVEDMNELERQFLELLQFNINVPSSVYAKYYFDLRSLAEANNLSFPLEPLSRERAHKLEAISRLCEDKYKDLRRSARKRSASADNLTLPRWSPAIIS
